Experimental data reported in DBAASP.
≈ marks a conversion by molar mass, not a printed value. Where “and” joins values, the source holds several entries; their conditions need not be identical. Equal values may be shown once. Blank lines part the entries; values can stand above or below the molecule they belong to.

Columns and labels:
Assay in all cases: ≥ marks a high value that may be exact or a test limit, other limits are often not marked, values filed in µg/mL are converted to µM
[1] = test system: Escherichia coli ATCC 25922
[2] = test system: Staphylococcus aureus ATCC 25923
[3] = test system: Xanthomonas axonopodis pv. glycines
Shigella sp. = test system: Shigella sp.
[4] = test system: Candida albicans 08022821
[5] = test system: Staphylococcus aureus 08032706
[6] = test system: Candida albicans 08030401
[7] = test system: Candida albicans 08022710
Candida glabrata 08A802 = test system: Candida glabrata 08A802
Escherichia coli = test system: Escherichia coli
[8] = test system: Candida glabrata 09050201
[9] = test system: Staphylococcus epidermidis
[10] = test system: Salmonella enterica subsp. enterica serovar Paratyphi A
Bacillus cereus = test system: Bacillus cereus
Klebsiella pneumoniae = test system: Klebsiella pneumoniae
[11] = test system: Enterococcus faecium 1299
[12] = test system: Stenotrophomonas maltophilia
[13] = test system: Candida albicans 08030102
[14] = test system: Candida albicans 08030809
Nocardia asteroides = test system: Nocardia asteroides
[15] = test system: Streptococcus pyogenes GAS M1T1
[16] = test system: Enterococcus faecalis NCTC 12204
[17] = test system: Acinetobacter baumannii AYE
[18] = test system: Xanthomonas axonopodis pv. phaseoli
[19] = test system: Pseudomonas aeruginosa PAO1
[20] = test system: Xanthomonas axonopodis pv. phaseoli ATCC 9563
[21] = test system: Acinetobacter baylyi ADP1
Pseudomonas syringae = test system: Pseudomonas syringae
[22] = test system: Enterococcus faecalis NCTC 12201
[23] = test system: Enterococcus faecalis NCTC 775
[24] = test system: Acinetobacter baumannii NCTC 13302
[25] = test system: Klebsiella pneumoniae NCTC 13368
[26] = test system: Escherichia coli NCTC 12923
[27] = test system: Pseudomonas syringae pv. tomato
Escherichia coli 319238 = test system: Escherichia coli 319238
Staphylococcus aureus 15 = test system: Staphylococcus aureus 15
[28] = test system: Staphylococcus aureus NCTC 9144
[29] = test system: Acinetobacter baumannii NCTC 13424
[30] = test system: Escherichia coli CFI_160_KPC2
[31] = test system: Escherichia coli CFI_161_NDM
[32] = test system: Acinetobacter baumannii ATCC 17987
Escherichia coli LEC 001 = test system: Escherichia coli LEC 001
[33] = test system: Pseudomonas aeruginosa NCTC 13437
Acinetobacter baumannii = test system: Acinetobacter baumannii
Klebsiella pneumoniae M6 = test system: Klebsiella pneumoniae M6
Escherichia coli BL21 = test system: Escherichia coli BL21

MIC [1]: 17.8 µM (≈ 35.3 µg/mL)
MIC [2]: 32.3 µM (≈ 64 µg/mL)
MIC [3]: 2 µM (≈ 3.96 µg/mL)
Compound: CC[C@H](C)[C@H](NC(=O)[C@@H](NC(=O)[C@H](CO)NC(=O)[C@H](Cc1c[nH]c2ccccc12)NC(=O)[C@H](CC(C)C)NC(=O)CN)[C@@H](C)O)C(=O)N[C@@H](CCCCN)C(=O)N[C@@H](CC(N)=O)C(=O)N[C@H](C(=O)N[C@@H](C)C(=O)N[C@@H](C)C(=O)N[C@@H](C)C(=O)N[C@@H](C)C(=O)NCC(=O)N[C@@H](CCCCN)C(=O)N[C@@H](C)C(=O)N[C@@H](C)C(=O)N[C@@H](CC(C)C)C(=O)NCC(=O)N[C@@H](C)C(=O)N[C@@H](CC(C)C)C(N)=O)C(C)C [GLWSTIKNVAAAAGKAALGAL]

MIC [1]: 11.1 µM (≈ 37.5 µg/mL)
MIC (Shigella sp.): 0.691 µM (≈ 2.34 µg/mL)
MIC [4]: 11.1 µM (≈ 37.5 µg/mL)
MIC [5]: 22.1 µM (≈ 75 µg/mL)
MIC [6]: 11.1 µM (≈ 37.5 µg/mL)
MIC [7]: 11.1 µM (≈ 37.5 µg/mL)
MIC (Candida glabrata 08A802): 11.1 µM (≈ 37.5 µg/mL)
MIC (Escherichia coli): 22.1 µM (≈ 75 µg/mL)
MIC [8]: 22.1 µM (≈ 75 µg/mL)
MIC [9]: 22.1 µM (≈ 75 µg/mL)
MIC [10]: 22.1 µM (≈ 75 µg/mL)
MIC (Bacillus cereus): 2.77 µM (≈ 9.38 µg/mL)
MIC (Klebsiella pneumoniae): 22.1 µM (≈ 75 µg/mL)
MIC [11]: 5.53 µM (≈ 18.8 µg/mL)
MIC [12]: 2.77 µM (≈ 9.38 µg/mL)
MIC [13]: 5.53 µM (≈ 18.8 µg/mL)
MIC [14]: 11.1 µM (≈ 37.5 µg/mL)
MIC (Nocardia asteroides): 11.1 µM (≈ 37.5 µg/mL)
Compound: CC[C@H](C)[C@H](NC(=O)[C@H](CO)NC(=O)[C@H](CO)NC(=O)CNC(=O)CNC(=O)CNC(=O)[C@H](C)NC(=O)[C@H](Cc1ccccc1)NC(=O)[C@H](Cc1ccccc1)NC(=O)[C@H](CCCCN)NC(=O)[C@H](CCCCN)NC(=O)[C@H](CC(C)C)NC(=O)[C@H](CCCN=C(N)N)NC(=O)[C@H](CCCN=C(N)N)NC(=O)[C@H](CCSC)NC(=O)[C@H](Cc1ccccc1)NC(=O)[C@H](CCCCN)NC(=O)[C@H](CCCN=C(N)N)NC(=O)[C@H](Cc1ccccc1)NC(=O)CNC(=O)[C@H](CC(N)=O)NC(=O)[C@H](CCCN=C(N)N)NC(=O)[C@@H](N)CCCCN)C(=O)N[C@@H](C)C(=O)N[C@@H](Cc1cnc[nH]1)C(=O)N[C@H](C(=O)N[C@@H](CCCCN)C(=O)N[C@@H](CC(C)C)C(=O)N[C@@H](Cc1cnc[nH]1)C(=O)O)[C@@H](C)CC [KRNGFRKFMRRLKKFFAGGGSSIAHIKLH]

MIC [15]: 8 µM (≈ 25.4 µg/mL)
MIC [16]: 5.03 µM (≈ 16 µg/mL)
MIC [17]: 0.315 µM (≈ 1 µg/mL)
MIC [18]: 0.0786 µM (≈ 0.25 µg/mL)
MIC [19]: 8 µM and 5.03 µM
MIC [20]: 0.25 µM (≈ 0.795 µg/mL)
MIC [21]: 0.629 µM (≈ 2 µg/mL)
MIC (Pseudomonas syringae): 8 µM (≈ 25.4 µg/mL)
MIC [22]: ≥ 40.3 µM
MIC [23]: ≥ 40.3 µM
MIC [24]: 0.315 µM (≈ 1 µg/mL)
MIC [25]: 5.03 µM (≈ 16 µg/mL)
MIC [26]: 0.157 µM (≈ 0.5 µg/mL)
MIC [27]: 0.0786 µM (≈ 0.25 µg/mL)
MIC (Escherichia coli 319238): 1.26 µM (≈ 4 µg/mL)
MIC (Staphylococcus aureus 15): ≥ 40.3 µM
MIC [28]: 2.52 µM (≈ 8 µg/mL)
MIC [29]: 0.629 µM (≈ 2 µg/mL)
MIC [30]: 0.629 µM (≈ 2 µg/mL)
MIC [31]: 0.315 µM (≈ 1 µg/mL)
MIC [32]: 0.315 µM (≈ 1 µg/mL)
MIC (Escherichia coli LEC 001): 2.52 µM (≈ 8 µg/mL)
MIC [33]: ≥ 40.3 µM
MIC (Acinetobacter baumannii): 0.315 µM (≈ 1 µg/mL)
MIC (Klebsiella pneumoniae M6): 2.52 µM (≈ 8 µg/mL)
MIC (Escherichia coli BL21): 2 µM (≈ 6.36 µg/mL)
Compound: CC[C@H](C)[C@H](NC(=O)[C@H](CCCCN)NC(=O)[C@H](CCC(=O)O)NC(=O)[C@H](CCCCN)NC(=O)[C@H](Cc1c[nH]c2ccccc12)NC(=O)[C@H](C)N)C(=O)N[C@@H](CCCN=C(N)N)C(=O)N[C@@H](CCCCN)C(=O)N[C@@H](CCCCN)C(=O)N[C@@H](CC(C)C)C(=O)N[C@@H](CCCCN)C(=O)N[C@@H](CC(N)=O)C(=O)N[C@@H](CCC(=O)O)C(=O)N[C@H](C(=O)N[C@@H](CCCCN)C(=O)N[C@@H](CCCCN)C(=O)N[C@@H](CCCCN)C(=O)N[C@@H](Cc1c[nH]c2ccccc12)C(=O)N[C@@H](CCCN=C(N)N)C(=O)N[C@@H](CCCCN)C(=O)N[C@@H](C)C(=O)N[C@H](C(=O)N[C@H](C(=O)N[C@@H](C)C(=O)N[C@@H](Cc1c[nH]c2ccccc12)C(=O)O)[C@@H](C)CC)C(C)C)[C@@H](C)CC [AWKEKIRKKLKNEIKKKWRKAVIAW]
